Results taken from paper PMC4926125, “Evaluation of the Toxicity and Toxicokinetics of Cereulide from an Emetic Bacillus cereus Strain of Milk Origin” (Toxins, 2016).
Where two headings read alike, the source gives them in different places.

What was measured:
[1] = Toxicokinetics of cereulide in rabbits after a single intravenous injection (plasma, UPLC-MS/MS); assay type: in vivo, New Zealand White rabbits; details: for MRT / Tmax: rabbit; for MRT: read-out: MRTlast, mean retention time until the last time point; for Tmax: read-out: Tmax, time to peak concentration
Procedure: A total number of eight rabbits (half female and half male) were used to evaluate the toxicokinetics of cereulide after a single administration of 5 μg cereulide. All plasma samples at different time points were collected, and the concentrations of cereulide were quantified by UPLC-MS/MS assay. The dynamic curve of cereulide in the plasma of rabbits is shown in Figure 3a, and toxicokinetic parameters were calculated using a non-compartmental model as shown in Table 1. […] The concentration of cereulide dropped down until 1 h and rose thereafter. Following a short stationary phase from 4 h to 8 h, the concentration of cereulide decreased gradually. No cereulide could be detected 32 h later. Additionally, no cereulide was detected in the rabbits treated by 0.9% saline-methanol (10:90, v/v) based on our established UPLC-MS/MS method.
(§1) This animal study was approved by the Institutional Animal Care and Use Committee at the China Agricultural University (SYXK (2012-0037), 28 December 2012), and all the operations were conducted according to the biosafety procedures. Eight adult New Zealand White rabbits (four female and four male) with weights of 2.0 ± 0.3 kg were used in this study. A single intravenous dose of 5 μg cereulide dissolved in 0.9% saline-methanol (10:90, v/v; the amount of methanol injected to rabbit was about 1.8 g/kg body weight) was administrated. Two other rabbits (one female and one male) were treated by 0.9% saline-methanol (10:90, v/v) as control. Blood samples were collected after injection at different time points 0, 0.2, 0.5, 1, 2, 3, 4, 5, 6, 8, 10, 12, 16, 20, 24, 28, 32 h. All samples were centrifuged at 4 °C, 2000 g for 10 min. Plasma from each sample was collected and stored at −80 °C.
The plasma samples were thawed to room temperature before analysis. Then 200 μL of each sample was spiked with 10 ng/mL valinomycin (Sigma-Aldrich, St. Louis, MO, USA) as internal standards in a 1.5 mL tube (Axygen, Union City, CA, USA). The extraction steps were as below. First 1 mL acetonitrile (Fisher Scientific, Waltham, PA, USA) was added to each sample and vortexed for 3 min. After centrifugation at 13,000 g for 10 min, the supernatants were transferred into new tubes. The extraction steps were repeated once and the supernatants were combined. The supernatants were evaporated under a flow of nitrogen gas at 50 °C. The dry samples were reconstituted with 500 μL methanol and water with the ratio of 9:1 (v/v), vortexed for 3 min and filtered through 0.22 μm filter membrane (PALL, Port Washington, NY, USA) before UPLC-MS/MS analysis.
The presence of cereulide was confirmed in all extracts and quantified by UPLC-MS/MS as described before. UPLC-MS/MS (Waters, Milford, MA, USA) equipped with a RP C18 column (50 mm × 2.1 mm, 1.7 μm, Acquity UPLC, Milford, MA, USA) was used. A gradient program was applied with the mobile phase consisting of solvent A (0.1% formic acid (Dikma, Lake Forest, CA, USA) in water) and solvent B (0.1% formic acid in acetonitrile) as follows: 98%–10% A (0–1 min), 10%–0% A (1–3 min), 0%–98% A (3–5 min). The flow rate was set at 0.3 mL/min with the injection volume of 10 μL. A positive electrospray ionization (ESI^+) mode was chosen to analyze the transitions of m/z 1170.9 → 1125.9 for cereulide and m/z 1128.8 → 1084.3 for valinomycin, by multiple reaction monitoring (MRM) method. The cone voltages for cereulide and valinomycin were 10 V and 60 V, and collision energy were 20 eV and 37 eV, respectively. All data were acquired and processed by software Masslynx 4.1 (Waters, Milford, MA, USA, 2005). The toxicokinetic parameters of cereulide were analyzed by the commercial pharmacokinetic program Phoenix WinNonlin 5.2.1 (Certara, Princeton, NJ, USA).

[2] = system: aspartate aminotransferase (AST) in plasma; experiment: Liver damage in rabbits evaluated by plasma AST concentration (indirect EIA); assay type: in vivo, New Zealand White rabbits; details: mean ± SD, n = 8, control range 15.0 to 30.0 ng/mL
Procedure: Liver damage in rabbits triggered by cereulide was evaluated by the concentration of aspartate aminotransferase (AST) in plasma. […] Liver function recovered, with the concentration of AST returning to the normal level 32 h after administration. In addition, the concentrations of AST in female rabbits were higher than those in males (Figure 3c), especially at the time point of 0.5 h (P = 0.0345).
as §1, with “Blood samples were collected after injection at different time points 0, 0.2, 0.5, 1, 2, 3, 4, 5, 6, 8, 10, 12, 16, 20, 24, 28, 32 h. All samples were centrifuged at 4 °C, 2000 g for 10 min. Plasma from each sample was collected and stored at −80 °C.” left out
Plasma samples at time points of 0.5, 6, 12, 24 and 32 h were evaluated concentrations of AST by indirect EIA according to the instruction (Beyotime Biotechnology, Beijing, China). […] Subsequently, the substrate was added with the absorbance at 450 nm.

[3] = still active after heat treatment in food processing and passing through the intestinal tract; cited from earlier work
From the text: B. cereus can be found in most common food matrices such as rice, pasta and dairy products, and it represents more than 68.0% of foodborne outbreaks in all food types. There is an increasing occurrence of B. cereus foodborne outbreaks. For example, B. cereus was responsible for 13.4% of bacterial foodborne outbreaks, ranking as the second among the most frequent bacterial causes of foodborne disease in Chinese inland provinces. In fact, the number of B. cereus contaminations is highly underestimated, because foodborne B. cereus disease is mild and self-limiting and is consequently ...

[4] = both sexes, New Zealand White, plasma, iv, 5 ug, single i.v. 5 μg cereulide/rabbit, plasma, UPLC-MS/MS, non-compartmental, n = 8, mean ± SD
[5] = both sexes, New Zealand White, plasma, iv, 5 ug, single i.v. 5 μg cereulide/rabbit, plasma, UPLC-MS/MS, non-compartmental, n = 8, median
[6] = single i.v. 5 μg cereulide/rabbit, plasma, UPLC-MS/MS (LOQ 1.5 ng/mL)
[7] = single i.v. 5 μg cereulide/rabbit, plasma, UPLC-MS/MS, non-compartmental, n = 8, median
[8] = single i.v. 5 μg cereulide/rabbit, plasma, UPLC-MS/MS, non-compartmental, n = 8, range

CC(C)C[C@H]1OC(=O)[C@H](C(C)C)NC(=O)[C@H](C(C)C)OC(=O)[C@@H](C)NC(=O)[C@@H](CC(C)C)OC(=O)[C@H](C(C)C)NC(=O)[C@H](C(C)C)OC(=O)[C@@H](C)NC(=O)[C@@H](CC(C)C)OC(=O)[C@H](C(C)C)NC(=O)[C@H](C(C)C)OC(=O)[C@@H](C)NC1=O [cereulide]
AUC(0-t) ([1]; both sexes, New Zealand White, iv, 5 ug, single i.v. 5 μg cereulide/rabbit, plasma, UPLC-MS/MS, non-compartmental, n = 8, mean ± SD, read-out: AUC, area under the curve for the plasma concentration until the last time point): 321 ± 240 ng·h/mL
AUC(0-inf) ([1]; both sexes, New Zealand White, iv, 5 ug, single i.v. 5 μg cereulide/rabbit, plasma, UPLC-MS/MS, non-compartmental, n = 8, mean ± SD, read-out: AUC∞, area under the curve until infinity): 390 ± 258 ng·h/mL
clearance ([1]; both sexes, New Zealand White, iv, 5 ug, single i.v. 5 μg cereulide/rabbit, plasma, UPLC-MS/MS, non-compartmental, n = 8, mean ± SD, read-out: Cl, clearance (converted)): 0.318 mL/min
Cmax ([1]; both sexes, New Zealand White, iv, 5 ug, single i.v. 5 μg cereulide/rabbit, plasma, UPLC-MS/MS, non-compartmental, n = 8, mean ± SD, read-out: Cmax, maximum concentration after intravenous administration): 40.8 ± 21.6 ng/mL
half-life ([1]; both sexes, New Zealand White, iv, 5 ug, single i.v. 5 μg cereulide/rabbit, plasma, UPLC-MS/MS, non-compartmental, n = 8, mean ± SD, read-out: HL_Lambda_z, elimination half-life (converted)): 10.8 ± 9.1 h
Vd ([1]; both sexes, New Zealand White, iv, 5 ug, single i.v. 5 μg cereulide/rabbit, plasma, UPLC-MS/MS, non-compartmental, n = 8, mean ± SD, read-out: Vd, volume of distribution): 0.32 ± 0.4 L
MRT [1, 4]: 9.6 ± 2.9 h
Tmax [1, 4]: 2.6 ± 3.4 h
MRT [1, 5]: 10.6 h
Tmax [1, 5]: 0.2 h
AUC, area under the curve for the plasma concentration until the last time point ([1]; single i.v. 5 μg cereulide/rabbit (ear vein), plasma 0-32 h, UPLC-MS/MS, non-compartmental model (WinNonlin), n = 8, median): 309.3 ng·h/mL
time after which no cereulide could be detected in plasma [1, 6]: 32 h
time at which cereulide was detected in plasma after injection [1, 6]: ≤ 0.2 h
Lambda_z, elimination rate constant ([1]; single i.v. 5 μg cereulide/rabbit, plasma, UPLC-MS/MS, non-compartmental, n = 8, mean ± SD): 0.1 ± 0.1 h⁻¹
AUC∞, area under the curve until infinity [1, 7]: 330.5 ng·h/mL
Cl, clearance [1, 7]: 15.5 mL/h
Cmax, maximum concentration after intravenous administration [1, 7]: 33.8 ng/mL
HL_Lambda_z, elimination half-life [1, 7]: 6.9 h
Lambda_z, elimination rate constant [1, 7]: 0.1 h⁻¹
Vd, volume of distribution [1, 7]: 208.1 mL
AUC, area under the curve for the plasma concentration until the last time point [1, 8]: 81.2 to 851.1 ng·h/mL
AUC∞, area under the curve until infinity [1, 8]: 126.0 to 853.9 ng·h/mL
Cl, clearance [1, 8]: 5.9 to 39.7 mL/h
Cmax, maximum concentration after intravenous administration [1, 8]: 13.3 to 78.1 ng/mL
HL_Lambda_z, elimination half-life [1, 8]: 1.9 to 24.5 h
Lambda_z, elimination rate constant [1, 8]: 0.03 to 0.4 h⁻¹
MRTlast, mean retention time until the last time point [1, 8]: 4.5 to 13.4 h
Tmax, time to peak concentration [1, 8]: 0.2 to 8.0 h
Vd, volume of distribution [1, 8]: 16.3 to 1254.5 mL
AST concentration in plasma ([2]; 0.5 h after single i.v. 5 μg cereulide): 99.1 ± 32.2 ng/mL
AST concentration in plasma ([2]; 12 h after single i.v. 5 μg cereulide): 97.3 ± 55.3 ng/mL
stability to heat and proteolysis [3]: heat-stable, proteolytically resistant
